Counter-ions that a name gives are not always drawn.
How the values were obtained:
CFY rats [1] = assay: anorexigenic effect in starved CFY rats (feed consumption / body weight); type: in vivo, rat; conditions: for ED50: Rattus norvegicus, rats, starved 24 h, dose halving food consumption or body weight gain vs control, read-out: ED50 orally in rats; for ED50 / Therapeutic ratio: oral; for Therapeutic ratio: LD50 and ED50 in rats
Experimental: For studying the anorexigenic effect the following method was used. CFY rats were starved for 24 hours, then the substance was orally administered, and half an hour later the animals were allowed to feed ad libitum during 5 hours when the feed consumption was measured. The change in the body weight of animals and the amount of the consumed solid, granulated food or sugar milk or peeled potato, respectively, were determined.
*ED50 is the oral dose after administration of which, following a
period of 24 hours of starvation, the rats consume the half amount of foo
as compared to control, or the oral dose after the administration of whic
the body weight gain is a half of that of control.

rats = conditions: oral, literature value (footnotes 2, 3); cited from earlier work
mice = conditions: oral, literature value (footnotes 1, 2, 5); cited from earlier work
acute toxicity in mice = conditions: mouse, in vivo
CFY rats [2] = conditions: oral, literature value (footnotes 4, 5); cited from earlier work
[3] = acute oral toxicity in rats; conditions: rat, in vivo

SMILES	ED50 (CFY rats [1])	Therapeutic ratio (CFY rats [1])	Acute LD50 orally in rats (rats)	Acute LD50 orally in mice (mice)	LD50 (acute toxicity in mice; ip)	ED50 orally in rats (CFY rats [2])	LD50 [3]	therapeutic ratio (comparison in words) (CFY rats [1]; compared with anorexigenic drugs introduced so far)	anorexigenic effect (CFY rats [1]; in words)	LD50 (acute toxicity in mice; po)
CCNC(C)Cc1cccc(C(F)(F)F)c1 (racemic) [Fenfluramine, DL-N-ethyl-α-methyl-3-trifluoromethylbenzeneethanamine hydrochloride]	7.5 mg/kg	20.3	138 mg/kg	170 to 290 mg/kg	100 mg/kg	–	–	–	–	–
CC(C)(N)Cc1ccc(Cl)cc1.Cl [Chlorphentermine, α,α-dimethyl-4-chlorobenzeneethanamine hydrochloride]	–	30.0	–	250 mg/kg	–	12.5 mg/kg	375 mg/kg	–	–	–
CC(N)Cc1ccccc1 [D-Amphetamine, D-benzeneethanamine sulphate]	5 mg/kg	7.6	38 mg/kg	60 mg/kg	–	–	–	–	–	–
COc1ccc(CC2CNC(=O)N2)cc1OC1CCCC1 (stereo not drawn) [Ia, 4-[(3-cyclopentyloxy-4-methoxyphenyl)methyl]-2-imidazolidinone]	10.5 mg/kg	72.5	–	–	680 mg/kg	–	760 mg/kg	more favourable than that of the best anorexigenic drugs introduced so far	much more intense than that of the anorexigenic drugs introduced so far	2050 mg/kg
OC1(c2ccc(Cl)cc2)c2ccccc2C2=NCCN21 (stereo not drawn) [Mazindol, 5-(4-chlorophenyl)-2,5-dihydro-3H-imidazo[2,1-a]isoindol-5-ol]	–	9.7	–	–	–	25.8 mg/kg	250 mg/kg	–	–	106 mg/kg
